Test systems include KM12; K562; HOP-92; BT-549; SF-295; NCI-H460; SNB-75; M14; 786-0; UACC-257; OVCAR-8; PC-3; MDA-MB-435; RPMI-8226; NCI-H522; CAKI-1; MDA-MB-231; OVCAR-4.
Common to all, as to test: growth of human tumour cells (NCI), 48 h

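The compound was tested at five concentrations on cells cultured in 96-well plates, with a 48-hour exposure period. At the GI50, growth is halved.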 The source made the active and inactive calls. No stated cut-off is given here; in the data, active = GI50 up to about 1.1 µM and inactive = higher.

In the case of `CCOC(=O)c1ccc(N2C(=S)N(C(=O)c3ccccc3)C(=N/c3ccccc3)/C2=N\c2ccccc2)cc1`, the GI50 was > 100 µM (inactive) in the test on KM12; > 100 µM (inactive) in the test with K562; 26.4 µM (inactive) in the test on HOP-92; 30.5 µM (inactive) with BT-549; 65.9 µM (inactive) in the test on SF-295; > 100 µM (inactive) in the test with NCI-H460. The GI50 in the test with SNB-75 was 22.7 µM (inactive); in the test on M14, 27.2 µM (inactive); with 786-0 it was 42.2 µM (inactive); in the test with UACC-257 it was > 100 µM (inactive); with OVCAR-8 it was 24.7 µM (inactive); in the test with PC-3, 59 µM (inactive). The GI50 in the test with MDA-MB-435 was 51.5 µM (inactive); in the test with RPMI-8226 it was > 100 µM (inactive); in the test on NCI-H522 it was 51.2 µM (inactive); with CAKI-1, 27.6 µM (inactive).
For the compound `CCOC(=O)CCCc1cc(O)c2c(C)c3[nH]c4ccc(Cl)cc4c3c(C)c2n1`, the GI50 is 37.2 µM (inactive) with KM12; 26.1 µM (inactive) in the test on K562; 22 µM (inactive) in the test on HOP-92; 19 µM (inactive) with BT-549; 28.8 µM (inactive) with SF-295; 16.5 µM (inactive) with NCI-H460. Besides, the GI50 in the test on SNB-75 was 25.9 µM (inactive); in the test with M14, 34.9 µM (inactive); in the test with 786-0, 20.4 µM (inactive); in the test on UACC-257, 43.2 µM (inactive); in the test on OVCAR-8, 24.9 µM (inactive); in the test on PC-3, 28.8 µM (inactive). Besides, the GI50 in the test with MDA-MB-435 was 18.5 µM (inactive); in the test with RPMI-8226, 32.6 µM (inactive); in the test with MDA-MB-231, 23.9 µM (inactive); with CAKI-1 it was 24.9 µM (inactive); in the test on OVCAR-4, 23.7 µM (inactive).
In the case of `COc1cc(C2SCC(=O)N2c2ccc(Cl)cc2)cc(OC)c1OC` (configuration not stated), the GI50 in the test with KM12 was 3.38 µM (inactive); in the test with K562, 0.11 µM (active); with HOP-92 it was > 49.1 µM (inactive); with BT-549 it was 20.2 µM (inactive); with SF-295, 4.95 µM (inactive); in the test with NCI-H460, 3.7 µM (inactive). Besides, the GI50 in the test with SNB-75 was > 100 µM (inactive); in the test with M14 it was 0.266 µM (active); in the test on 786-0, > 58.5 µM (inactive); in the test with UACC-257, 22.6 µM (inactive); in the test with OVCAR-8 it was > 45.4 µM (inactive); in the test with PC-3, 46.2 µM (inactive). Besides, the GI50 is 0.635 µM (active) in the test on MDA-MB-435; 8.93 µM (inactive) in the test with RPMI-8226; > 100 µM (inactive) in the test on MDA-MB-231; 31.8 µM (inactive) in the test with NCI-H522; 10.4 µM (inactive) in the test with CAKI-1; 5.81 µM (inactive) with OVCAR-4.
As for `CC(=O)O/C=C1/C[C@H]2[C@@H]3CCC4CC(C(C)=O)CC[C@]4(C)[C@H]3CC[C@]2(C)C1=O` (some centres not stated), the GI50 is 33.7 µM (inactive) in the test on KM12; 36.4 µM (inactive) in the test with K562; 41 µM (inactive) in the test with HOP-92; > 100 µM (inactive) in the test with BT-549; 49.1 µM (inactive) with SF-295; > 100 µM (inactive) with NCI-H460. Also, the GI50 with 786-0 is 68.2 µM (inactive); in the test with UACC-257, > 100 µM (inactive); in the test with PC-3, > 100 µM (inactive); in the test on MDA-MB-435, > 100 µM (inactive); with MDA-MB-231, > 100 µM (inactive); in the test with NCI-H522 it was > 100 µM (inactive). The GI50 in the test with CAKI-1 and in the test on OVCAR-4 was > 100 µM (inactive) throughout.
On to `Cc1ccc(NC(=O)C(=O)CC(=O)c2c(C)[n+]([O-])c3ccccc3[n+]2[O-])cc1`, for which the GI50 is 29.2 µM (inactive) in the test on KM12; 21.5 µM (inactive) with K562; 21.9 µM (inactive) with HOP-92; 51.1 µM (inactive) in the test with SF-295; 27.9 µM (inactive) in the test with NCI-H460; 23.6 µM (inactive) with SNB-75. Further, the GI50 in the test with M14 is 23.9 µM (inactive); with 786-0 it was 40.6 µM (inactive); with UACC-257, 24.2 µM (inactive); in the test with OVCAR-8 it was 22.8 µM (inactive); in the test on RPMI-8226, 24.4 µM (inactive); in the test with NCI-H522 it was 20.9 µM (inactive). The GI50 in the test on CAKI-1 is 79.1 µM (inactive); in the test on OVCAR-4, 22.6 µM (inactive).
Consider `O=c1c2cc(S(=O)(=O)Nc3c(Cl)cccc3Cl)ccc2ncn1NS(=O)(=O)c1ccc2ccccc2c1`, for which the GI50 in the test on KM12 is 15.2 µM (inactive); in the test with K562, 16.6 µM (inactive); in the test on HOP-92, 19.6 µM (inactive); in the test with BT-549, 22.3 µM (inactive); with SF-295, 23 µM (inactive); in the test with NCI-H460, 42.2 µM (inactive). Further, the GI50 in the test on SNB-75 was 50.1 µM (inactive); in the test with M14, > 62.5 µM (inactive); with 786-0 it was > 62.5 µM (inactive); in the test with UACC-257 it was > 62.5 µM (inactive); in the test with OVCAR-8, > 62.5 µM (inactive); in the test with PC-3, 12.8 µM (inactive). In addition, the GI50 is > 62.5 µM (inactive) with MDA-MB-435; 28.8 µM (inactive) in the test on RPMI-8226; 42.4 µM (inactive) in the test on MDA-MB-231; 45.4 µM (inactive) in the test on NCI-H522; 25.9 µM (inactive) with CAKI-1; > 62.5 µM (inactive) with OVCAR-4.
On to `COc1ccc(/C=C/c2sc3ccccc3[n+]2CCCCI)cc1OC`, for which the GI50 with KM12 was 6.25 µM (inactive); in the test on K562, 3.25 µM (inactive); in the test with HOP-92, 9.53 µM (inactive); in the test on BT-549 it was > 10 µM (inactive); in the test on SF-295 it was > 10 µM (inactive); in the test on NCI-H460, > 10 µM (inactive). In addition, the GI50 with SNB-75 is 5.64 µM (inactive); in the test with M14, > 10 µM (inactive); with 786-0 it was > 10 µM (inactive); with UACC-257 it was 5.33 µM (inactive); with OVCAR-8 it was 4.61 µM (inactive); in the test with PC-3, 3.33 µM (inactive). The GI50 in the test with MDA-MB-435 was 4.57 µM (inactive); in the test with RPMI-8226, 7.33 µM (inactive); in the test with MDA-MB-231, > 10 µM (inactive); with NCI-H522 it was 8.87 µM (inactive); in the test with CAKI-1, > 10 µM (inactive); in the test on OVCAR-4, > 10 µM (inactive).
`Cc1ccc(S(=O)(=O)N[C@@H](Cc2ccccc2)C(=O)CCl)cc1` [TPCK]: the GI50 with K562 is 9.75 µM (inactive); in the test on HOP-92, 13.6 µM (inactive); with BT-549 it was 11.7 µM (inactive); in the test on SF-295 it was 18.9 µM (inactive); with NCI-H460, 15.5 µM (inactive); with SNB-75, 14.3 µM (inactive). In addition, the GI50 is 13.4 µM (inactive) in the test on M14; 13.9 µM (inactive) in the test with 786-0; 12.3 µM (inactive) with UACC-257; 13.7 µM (inactive) with OVCAR-8; 15.4 µM (inactive) with PC-3; 14.3 µM (inactive) in the test on MDA-MB-435. The figures for the GI50 in the test with MDA-MB-231, with NCI-H522 and in the test on OVCAR-4 were 14.2 µM (inactive), 9.68 µM (inactive) and 4.93 µM (inactive), respectively.
For `CC(C)NC1CCCCC2c3ccccc3C12O` (configuration not stated), the GI50 in the test with KM12, in the test on K562, in the test on SF-295, with NCI-H460, in the test on SNB-75 and with M14 was > 100 µM (inactive) each time. For the same compound, the GI50 in the test on 786-0, with UACC-257, in the test with OVCAR-8, with RPMI-8226, with NCI-H522 and with OVCAR-4 was > 100 µM (inactive) in each case.

The record behind these values is ChEMBL document CHEMBL1201862, “PubChem BioAssay data set” (2004).
